Measured values taken from patent publication US8980614B2, “Staphylococcus haemolyticus prophage φSH2 endolysin is lytic for Staphylococcus aureus” (The United States of America, as represented by The …, priority 2012, dated 2015).

B1: B1: Fusion of intact φSH2 CHAP and SH3b domains (1-166 + 341-493), SEQ ID NO:12 (protein)
chain: MKTQAEINKRLDAYRKGTVDSPYRVKVWTSYDNRFYPMEPGCIDVDKSFHAQCADLTIDYILWLTDNEFRIRGNAKDAINPKKNKLPEGWKIVLNRPSTVPRKGWIAVFTDGTYWEYGHIGMVYDGGNTSRFQILEQNWNGWANKKPSLRWDNYYGLTHFIVPPVALEVLHTGLDPLYHSITEHARLKLKDYFIKQIRAYMDGKKPTSKVVVSKPGSASTPATRKDANGYRENPHGTLYKEEHATFTANANIITRYVGPFTNMPQAGILKAGQTIIYDEVMKQDGYIWVGYTAYNGKRVYLPVRKWNRETDSVGKLWGVISLEHHHHHH
modifications: Bacteriophage Phi SH2
B2: C1: CHAP plus amidase domain, lacks SH3b (1-397), SEQ ID NO:16 (protein)
chain: MKTQAEINKRLDAYRKGTVDSPYRVKVWTSYDNRFYPMEPGCIDVDKSFHAQCADLTIDYILWLTDNEFRIRGNAKDAINPKKNKLPEGWKIVLNRPSTVPRKGWIAVFTDGTYWEYGHIGMVYDGGNTSRFQILEQNWNGWANKKPSLRWDNYYGLTHFIVPPVAKENKAVSSSKQQAPKQKVKKASTKKALPKITKHITGYNMDKRGYNPKGVVLHNDAGGMNYKQYYNNLVNANYDRLARGIAHAYVDRTGIWEAIDESRIAWHVADGTRPGSGNHDFYGIEVNQSLRASDKEFLENEQAVFQFAAEKLKKWGLPANRNTVRLHNEFSQTSCPHRSMVLHTGLDPLYHSITEHARLKLKDYFIKQIRAYMDGKKPTSKVVVSKPGSASTPATRKLEHHHHHH
modifications: Bacteriophage Phi SH2
B3: E1: Amidase plus SH3b domain (178-493), SEQ ID NO:24 (protein)
chain: MQAPKQKVKKASTKKALPKITKHITGYNMDKRGYNPKGVVLHNDAGGMNYKQYYNNLVNANYDRLARGIAHAYVDRTGIWEAIDESRIAWHVADGTRPGSGNHDFYGIEVNQSLRASDKEFLENEQAVFQFAAEKLKKWGLPANRNTVRLHNEFSQTSCPHRSMVLHTGLDPLYHSITEHARLKLKDYFIKQIRAYMDGKKPTSKVVVSKPGSASTPATRKDANGYRENPHGTLYKEEHATFTANANIITRYVGPFTNMPQAGILKAGQTIIYDEVMKQDGYIWVGYTAYNGKRVYLPVRKWNRETDSVGKLWGVISLEHHHHHH
modifications: Bacteriophage Phi SH2
B4: D1: Isolated amidase domain (178-397), SEQ ID NO:20 (protein)
chain: MQAPKQKVKKASTKKALPKITKHITGYNMDKRGYNPKGVVLHNDAGGMNYKQYYNNLVNANYDRLARGIAHAYVDRTGIWEAIDESRIAWHVADGTRPGSGNHDFYGIEVNQSLRASDKEFLENEQAVFQFAAEKLKKWGLPANRNTVRLHNEFSQTSCPHRSMVLHTGLDPLYHSITEHARLKLKDYFIKQIRAYMDGKKPTSKVVVSKPGSASTPATRKLEHHHHHH
modifications: Bacteriophage Phi SH2

Key:
[1] = system: MRSA strain NRS382; assay: Control of systemic MRSA infection in a murine model; assay type: in vivo, Balb/c mice
[2] = system: S. aureus Newman cells; assay: Turbidity reduction assay; assay type: cell-based, Staphylococcus aureus; settings: 1 μM protein; for lytic activity in turbidity reduction assays (in words): different NaCl concentrations; for lytic (specific) activity compared with the full length φSH2 lysin: at optimum salt concentration
Experimental: The turbidity reduction assay measures a decrease in optical density of a bacterial suspension due to lysis of the target bacteria by a lytic protein. The assays were performed in a 96-well dish format essentially as described previously (Donovan et al. 2006, supra). In order to reduce the variability of the assay, frozen stocks of S. aureus Newman substrate cells were prepared in a large batch as described by Becker et al. (2009b, supra). Immediately prior to the assay, the frozen cells were thawed, washed, and resuspended in the desired assay buffer such that when 100 μl of cell suspension were added to 100 μl of lysis buffer+/−protein, the final suspension has an OD600nm of ˜1.0.
Protein constructs were assayed at a concentration of 1 μM, and the assay was performed at room temperature, measuring the OD600nm at 1 min intervals for 45 min. Buffer without enzyme served as the control. The steepest slopes of the resulting lysis curves, which correspond to the lytic activities of the proteins, were determined by a sliding window over each group of three consecutive time points for the entire 45 min period. Specific activities were expressed as ΔOD600nm/min/μM, and the “no enzyme” control value was subtracted from each experimental value.
In order to determine the effect of salt concentration on lytic activity, turbidity reduction assays were performed in 10 mM Tris buffers at pH 7.5 with varying NaCl concentrations between 0 mM and 600 mM. Accordingly, the influence of pH was determined by using a series of different buffers with pH values ranging from 3.5 to 10.0. Citrate buffers were used for pH 3.5, 4.5, 5.5, and 6.0, MOPS buffers for pH 6.5, 7.0, and 7.5, Tris buffers for pH 8.0 and 9.0, and Carbonate/bicarbonate buffer for pH 10.0. The concentration of the buffer substance in all buffers used was 20 mM, and the NaCl concentration was 200 mM. To test the effect of bivalent metal ions, assays were performed in 10 mM Tris, 200 mM NaCl, pH 7.5 supplemented with MgCl2, MnCl2, or CaCl2 at different concentrations (0.1 mM, 1 mM, 10 mM), buffer without metal ions serving as control.

[3] = system: S. aureus Newman cells; assay: Zymogram with S. aureus Newman cells embedded in the gel; assay type: cell-based; settings: 5 μg protein
Experimental: All purified proteins were analyzed with 15% SDS-PAGE, using a Kaleidoscope Precision Plus Protein Standard (BioRad, Hercules, Calif.). For zymograms, a 300 mL culture volume equivalent of live mid-log phase (OD600nm=0.4-0.6) cells of S. aureus strain Newman was embedded in the gel during polymerization. The protein samples were boiled in Laemmli sample buffer (BioRad) with β-mercaptoethanol, and electrophoresed with identical buffers and voltage for one hour in both the SDS-PAGE and the zymogram using a Mini-Protean TETRA gel system (BioRad). SDS gels were Coomassie stained and zymograms were washed in excess water and further incubated in deionized water for 60 min, followed by incubation in 10 mM Tris, pH 8.0 with 150 mM or 300 mM NaCl for 80 min. Areas of clearing in the turbid zymogram gel indicate a lytic protein in the gel.

[4] = 0 hours, mice infected i.p. with MRSA NRS382, treated 30 min post infection (φSH2 200 μg/mouse i.p.; Vancomycin 375 μg/mouse s.c.; Oxacillin 1250 μg/mouse s.c.)
[5] = 4 hours, same infection and treatment
[6] = 8 hours, same infection and treatment
[7] = 12 hours, same infection and treatment
[8] = 16 hours, same infection and treatment
[9] = 20 hours, same infection and treatment
[10] = 24 hours, same infection and treatment
[11] = 28 hours, same infection and treatment
[12] = 32 hours, same infection and treatment
[13] = 36 hours, same infection and treatment
[14] = 40 hours, same infection and treatment
[15] = 44 hours, same infection and treatment
[16] = after incubation in deionized water for 60 min
[17] = water 60 min, then 10 mM Tris, 150 mM NaCl, pH 8.0 up to 80 min

Row | Molecule | % Survival [1, 4] | % Survival [1, 5] | % Survival [1, 6] | % Survival [1, 7] | % Survival [1, 8] | % Survival [1, 9] | % Survival [1, 10] | % Survival [1, 11] | % Survival [1, 12] | % Survival [1, 13] | % Survival [1, 14] | % Survival [1, 15] | lytic activity in turbidity reduction assays (in words) [2] | lysis in zymogram [3, 16] | lysis in zymogram [3, 17] | lytic (specific) activity compared with the full length φSH2 lysin [2] | other results
1 | Cc1onc(-c2ccccc2)c1C(=O)N[C@@H]1C(=O)N2[C@@H]1SC(C)(C)[C@@H]2C(=O)O [Oxacillin] | 100% | 100% | 100% | 100% | 100% | 40% | 40% | 30% | 30% | 30% | 30% | 30% | – | – | – | – | survival rate ([1]; after 16 to 20 hours, Oxacillin 1250 μg/mouse s.c. 30 min post infection): less than 40%
2 | CN[C@H](CC(C)C)C(=O)N[C@H]1C(=O)N[C@@H](CC(N)=O)C(=O)N[C@H]2C(=O)N[C@H]3C(=O)N[C@H](C(=O)N[C@H](C(=O)O)c4cc(O)cc(O)c4-c4cc3ccc4O)[C@H](O)c3ccc(c(Cl)c3)Oc3cc2cc(c3O[C@@H]2O[C@H](CO)[C@@H](O)[C@H](O)[C@H]2O[C@H]2C[C@](C)(N)[C@H](O)[C@H](C)O2)Oc2ccc(cc2Cl)[C@H]1O [Vancomycin] | 100% | 100% | 100% | 100% | 100% | 100% | 100% | 100% | 100% | 100% | 100% | 100% | – | – | – | – | % Survival ([1]; 48 hours (end of the experiment), same infection and treatment): 100%
3 | B1 | – | – | – | – | – | – | – | – | – | – | – | – | completely abolished its activity | faint zones of lysis | considerably weaker | – | –
4 | B2 | – | – | – | – | – | – | – | – | – | – | – | – | drastically reduced activity | faint zones of lysis | considerably weaker | about half the activity | –
5 | B3 | – | – | – | – | – | – | – | – | – | – | – | – | – | – | only very faint lysis | about half the activity | –
6 | B4 | – | – | – | – | – | – | – | – | – | – | – | – | only background levels of activity | – | – | – | lysis in zymogram ([3]; water 60 min, then 10 mM Tris, 300 mM NaCl, pH 8.0 for 80 min): pronounced lytic band
